Reference: ChEMBL document CHEMBL1156829 (Proc Natl Acad Sci U S A, 2008)
pEC50: −log10 of the molar value.

Legend:
[1] = NOVARTIS: Cytotoxicity against human hepatocellular carcinoma cell line (Huh7); type: toxicity, cell-based, Huh-7; settings: Huh7 cells (hepatocellular carcinoma cell line)
[2] = test system: Plasmodium falciparum; assay: NOVARTIS: Inhibition of Plasmodium falciparum W2 (drug-resistant) proliferation in erythrocyte-based infection assay; type: functional, organism-based; settings: Plasmodium falciparum, W2; read-out: EC50
[3] = test system: Plasmodium falciparum; assay: NOVARTIS: Inhibition of Plasmodium falciparum 3D7 (drug-susceptible) proliferation in erythrocyte-based infection assay; type: functional, organism-based; settings: Plasmodium falciparum, 3D7

Structure (SMILES) | CC50 [1] | pEC50 [2] | pEC50 [3]
OCC[n+]1c2ccccc2nc2ccc(N3CCOCC3)cc21.[O-][Cl+3]([O-])([O-])[O-] | 35000 nM | 7.25 | 6.62
CCN(CC)CCCC(C)Nc1cc(C=Cc2ccc([N+](=O)[O-])cc2)nc2cc(OC)ccc12 (stereo unspecified) | 20200 nM | 7.49 | 7.50
CC=C[C@H]1O[C@@](O)([C@H](C)C(O)C(C)[C@@H]2OC(=O)C(OC)=CC(C)=C[C@H](C)[C@H](O)[C@H](CC)[C@H](O)C(C)CC(C)=CC=C[C@H]2OC)C[C@@H](O[C@@H]2C[C@H](O)[C@@H](OC(N)=O)[C@H](C)O2)[C@@H]1C (stereo partly specified) | > 10000 nM | > 7.73 | < 6.30
CC(=NNC(=O)/C(=C\c1ccc([N+](=O)[O-])cc1)NC(=O)c1ccccc1)c1ccccn1 | > 100000 nM | 6.77 | 6.46
O=C(CCc1ccccc1)c1ccccc1OCC(O)CN1CCCCC1 (stereo unspecified) | 87900 nM | 6.84 | 6.06
FC(F)(F)c1cccc(C=NNc2nc3ccccc3[nH]2)c1 | 63200 nM | 6.94 | 7.02
O=C(CN1CCN(C(=O)c2ccco2)CC1)Nc1ccccc1Br | > 100000 nM | 6.73 | 6.45
COc1cccc(NC(=O)c2cccc3c(=O)c4c([nH]c23)CCCC4)c1 | > 100000 nM | 6.77 | 6.02
COC(=O)C1=CNC=C(C(=O)OC)C1c1ccc(Cl)c([N+](=O)[O-])c1 | > 100000 nM | 6.78 | 6.87
COc1ccccc1C1CC(c2ccccc2)=NN1C(=O)c1ccccc1 (stereo unspecified) | 67000 nM | 6.96 | 6.58
Cc1oc2c(c1C(=O)N1CCC(C)CC1)C(=O)c1ccccc1C2=O | 48300 nM | 7.10 | 6.65
CCc1ccc(C(Nc2cc(C)ccn2)c2ccc3cccnc3c2O)cc1 (stereo unspecified) | > 100000 nM | 6.79 | 5.83
COc1ccc(C2CC(=O)C3=C(C2)NC(C)=C(C(=O)OC2CCCC2)C3c2ccc(F)cc2)cc1OC (stereo unspecified) | 11600 nM | 7.72 | 7.90
O=C(Cc1ccccc1)N1CCOc2c(cc(-c3csc4ccccc34)cc2OCCc2ccccn2)C1 | > 100000 nM | 6.78 | 6.59
C=CCSc1nc(N)c2c3c(sc2n1)CN(CCC)CC3 | > 100000 nM | 6.78 | 6.21
COCC(=O)NCc1ccc(OC2CCN(CC(c3ccccc3)c3ccccc3)CC2)cc1 | > 10000 nM | > 7.78 | 6.34
Cc1cc(C)c2c(c1)-c1c(ssc1=S)C(C)(C)N2C(=O)COc1nc2ccccc2s1 | > 100000 nM | 6.77 | 6.90
C=CC1CC23CC(C(OC(=O)CCC(=O)O)c4ccnc5ccc(OC)cc45)N2CCC13 (stereo unspecified) | 45700 nM | 7.11 | 7.85
N=c1c2c(n(Cc3ccccc3Cl)c3c1CCC3)CCCC2 | > 100000 nM | 6.76 | 6.65
Cc1ccc(Cn2c(SCc3ccc(C(=O)NCCc4ccccc4)cc3)nc3ccncc32)cc1 | > 100000 nM | 6.76 | 6.15
COc1cccc(-c2ccc(O)c(CN3CCC(C)CC3)c2)n1 | 75000 nM | 6.89 | 6.47
C#CCNC(=O)c1ccc(OC2CCN(CC(c3ccccc3)c3ccccc3)CC2)c(OC)c1 | 55000 nM | 7.05 | 6.68
CCOC(=O)c1nnn(-c2nonc2N)c1-c1ccc(Cl)cc1 | > 100000 nM | 6.80 | 6.40

Structure (SMILES) | CC50 [1] | pEC50 [2] | pEC50 [3]
CN(Cc1cc(-c2ccccc2)ccc1O)CC(O)c1ccccc1 (stereo unspecified) | > 10000 nM | 7.74 | 6.36
O=C(NCc1ccccc1)c1cnc(NCCC(c2ccccc2)c2ccccc2)nc1NC1CC1 | > 10000 nM | > 7.80 | < 5.94
Cc1ccc(NC(=O)N(CCN(C)C)Cc2cc3cc4c(cc3[nH]c2=O)OCCO4)cc1 | > 100000 nM | 6.80 | 6.01
Cc1ccc(Cn2c(N3CCC(C(=O)NCc4ccccn4)CC3)nc3ccccc32)cc1 | > 100000 nM | 6.73 | 6.32
COc1ccc(CCNc2nc(NCCCN3CCCCC3C)ncc2C(=O)NCc2ccccc2)cc1OC (stereo unspecified) | > 10000 nM | > 7.79 | 6.49
FC(F)(F)c1ccccc1NC(=S)N1CCCN(c2nc3ccc(Cl)cc3s2)CC1 | 77800 nM | 6.84 | 6.92
Cc1ccc(C)c(Oc2c(C(F)(F)F)oc3c(CN4CCN(C)CC4)c(O)ccc3c2=O)c1 | > 100000 nM | 6.73 | 6.08
CCOC(=O)c1c(CNCCN(CC)CC)n(C)c2cc(Br)c(O)cc12 | > 100000 nM | 6.73 | 6.29
N#Cc1c(N)nc(C(Cl)(Cl)Cl)nc1-c1ccccc1 | > 100000 nM | 6.74 | 6.30
CCOC(=O)C1=C(C)NC2=C(C(=O)CC(C)(C)C2)C1c1ccc(Cl)cc1Cl (stereo unspecified) | 66000 nM | 6.92 | 6.55
COc1cc(NC(C)CCCN(Cc2ccc(F)cc2)C(=O)C(C)(C)CCl)c2ncccc2c1 (stereo unspecified) | > 1830 nM | > 8.46 | 6.33
COc1ccc2[nH]c(SCC(=O)Nc3cccc(NC(=O)CSc4nc5cc(OC)ccc5[nH]4)n3)nc2c1 | > 51000 nM | 7.02 | 6.91
CC(C)CCN1C(=O)N(CCN(C)C)C(=O)C12CCN(Cc1ccc(O)cc1)CC2 | 68400 nM | 6.91 | 6.13
CCCOc1ccc(C2Sc3ccccc3N=C3C2=C(O)c2ccccc23)cc1OC (stereo unspecified) | > 100000 nM | 6.75 | 6.32
CCN(CC)C(=O)CSc1nnc(-c2ccccn2)n1-c1ccc(OC)cc1 | 3190 nM | > 8.25 | 5.89
Oc1ccc(-c2ccnc3cc(Cl)ccc23)cc1CNCC1(O)CCCCC1 | > 13700 nM | > 7.62 | 5.99
CCOC(=O)C1=C(C)NC2=C(C(=O)C(C(=O)OCC)C(c3cccc(OC)c3)C2)C1c1ccc(OC)c(OC)c1 (stereo unspecified) | > 100000 nM | 6.78 | 6.42
COc1ccc(OC)c(-c2ccc(O)c(CN(C)CC(O)c3ccccc3)c2)c1 (stereo unspecified) | 66300 nM | 6.91 | 6.61
CCc1c(C)nc2cc(-c3cc(OC)cc(OC)c3)nn2c1NCCCn1ccnc1 | > 100000 nM | 6.73 | 5.54
CCN(C(=O)CSc1nc(-c2ccc(C(C)C)cc2)no1)c1cccc(C)c1 | > 100000 nM | 6.74 | 6.45
Cc1cc(C)n(N=Cc2ccc(Cl)cc2)c(=O)c1C#N | > 100000 nM | 6.74 | 5.97
COC(=O)C1=C(C)NC2=C(C(=O)CC(c3ccc(OC)c(OC)c3)C2)C1c1ccc(Br)cc1 (stereo unspecified) | > 100000 nM | 6.74 | 6.35
CC(C(=O)NCCCN)N(Cc1ccccc1)S(C)(=O)=O (stereo unspecified) | > 10000 nM | 7.79 | < 5.90

Structure (SMILES) | CC50 [1] | pEC50 [2] | pEC50 [3]
FC(F)(F)c1cccc(NC(=S)N2CCCC2c2ccccc2Cl)c1 (stereo unspecified) | > 100000 nM | 6.73 | 6.73
CCOC(=O)C1=C(C)NC(=Cc2cc(C)n(-c3ccc(C)cc3)c2C)C1=O | > 100000 nM | 6.77 | 6.92
CCOC(=O)C1CCN(C(c2cc3cc(OC)c(OC)cc3[nH]c2=O)c2nnnn2Cc2ccccc2)CC1 (stereo unspecified) | > 100000 nM | 6.80 | 6.38
CCOC(=O)CCCCC(=O)c1[nH]c(=O)[nH]c1Cn1ccnc1 | > 100000 nM | 6.78 | 6.82
CCN1CCN(Cc2c(O)ccc3c(=O)c(Oc4cccc(C)c4)c(C(F)(F)F)oc23)CC1 | > 100000 nM | 6.79 | 5.95
CC[n+]1c(SC)ccc2cc(OC)ccc21 | > 100000 nM | 6.73 | 7.03
Cc1ccn2c(NC(C)(C)CC(C)(C)C)c(-c3ccccc3OC(=O)CCc3ccccc3)nc2c1 | > 10000 nM | 7.73 | 6.07
CC(C)CN(CC(=O)Nc1cc(C(C)(C)C)nn1-c1ccccc1)C(=O)c1cc(Cl)cc(Cl)c1 | > 10000 nM | > 7.78 | 5.91
COC(=O)[C@@H]1C[C@@H](NC(=O)c2ccc(OC)cc2OC)CN1Cc1ccc(C(F)(F)F)cc1 | > 100000 nM | 6.80 | 6.46
COc1ccc(C2Sc3ccccc3N=C3C2=C(O)c2ccccc23)cc1 (stereo unspecified) | > 100000 nM | 6.76 | 6.62
CC(C)C(=O)NCCCCNc1ccnc2cc(Cl)ccc12 | > 10000 nM | > 7.73 | 5.80
COc1ccccc1NC(=O)N1CCN(C(=O)c2nc(-c3ccccc3)nc(C)c2C(=O)OC(C)C)CC1C (stereo unspecified) | > 10000 nM | > 7.77 | 6.28
Nc1ccc(N2CCCCCC2)cc1 | > 100000 nM | 6.74 | 6.82
CC(C)(C)c1ccc2c(c1)CN(C1CCCCC1)CO2 | 20800 nM | 7.43 | 7.00
COC(=O)C1=CNC=C(C(=O)OC)C1c1ccc(Cl)c(Cl)c1 | > 64900 nM | 6.98 | 6.94
CCN1c2ccccc2N(C)C1(C)c1ccccc1 (stereo unspecified) | 28800 nM | 7.31 | 7.33
COc1ccc(-[n+]2cc(-c3ccc(Br)cc3)n3c2SCCC3)cc1 | > 100000 nM | 6.77 | 6.22
Fc1cc(F)c(C2SCCN2C(=S)Nc2cccc(C(F)(F)F)c2)c(F)c1 (stereo unspecified) | > 100000 nM | 6.73 | 6.56
N#Cc1c2c(c(N3CCN(CCO)CC3)n3c1nc1ccccc13)CCC2 | > 100000 nM | 6.75 | 6.68
CCCN1CCN(C(=O)C(=O)Nc2ccc3nc4n(c(=O)c3c2)CCCCC4)CC1 | > 100000 nM | 6.78 | 5.77
Cc1ccn2c(NC(C)(C)CC(C)(C)C)c(-c3ccccc3OC(=O)C3CCCCC3)nc2c1 | > 10000 nM | 7.73 | 6.18
